Data on 2 compounds can be found in US10813929B2, “Treating cancer with ATR inhibitors” (VERTEX PHARMACEUTICALS INCORPORATED, priority 2011, dated 2020).

In assay [1] the test system is PSN1 pancreatic cancer xenografts. The experiment in a line: PSN1 pancreatic cancer xenograft model with gemcitabine. The assay is classed as in vivo, female nude MF1 mice. Particulars: VE-822 PO q2d 10, 30 or 60 mg/kg with gemcitabine 15 mg/kg IP q3d; FIG. 21. As to the method:
PSN1 cells (1×10^6 cells per mouse) were implanted as a mixture in Matrigel (100 μl per mouse) into the flank of female nude MF1 mice and grown to a volume of about 200 mm^3 prior to compound administration. Gemcitabine was dosed alone at 15 mg/kg ip, once every three days (ip, q3d) in 0.5% methylcellulose in water for a maximum of 10 cycles. VE-822 was dosed, as a suspension in 0.5% methylcellulose in water, alone at either 10, 30 or 60 mg/kg po every other day for 28 days (po q2d). Three combination groups received gemcitabine at 15 mg/kg plus VE-822 either at 10, 30 or at 60 mg/kg po on the same schedule as the single agent groups. A control group received vehicle alone (0.5% methylcellulose ip q3d). All drug treatment was stopped on Day 30. Vehicle and VE-822 groups were sacrificed on day 13 due to excessive tumor volumes.
Data shown are mean tumor volume±SEM (n=8 per group). Red filled circles are VE-822 treatment; Black filled squares are vehicle treatment; Green filled circles are gemcitabine treatment; Blue filled circles are gemcitabine and VE-822 (10 mg/kg) treatment; Red filled circles are gemcitabine and VE-822 (30 mg/kg) treatment; Pink filled circles are gemcitabine and VE-822 (60 mg/kg) treatment;

Assay [2] concerns PSN-1, MiaPaCa-2 and PancM cells. The experiment in a line: Clonogenic survival assay, pancreatic cancer cells. The format is cell-based. The protocol:
PSN-1 cells were plated as single cells, treated with 1 μM VE-821 at different time points in relation to 4 Gy irradiation and assessed for colony formation after 10 days. The survival fraction at 4 Gy for each of the treatment schedules was determined by taking into account the relevant plating efficiency of unirradiated cells. Cells were treated with 1 μM VE-821 4 h after plating and 1 h prior to irradiation. Drug was removed after 72 h and colony-forming ability was assessed after 10 to 21 days. (n=3). *, P<0.05; **, P<0.01 over DMSO-treated control. A) clonogenic survival curves of cells treated with 1 μM VE-821 and irradiation under hypoxic conditions. Plated cells were transferred to hypoxia (0.5% O2) and acclimatised for 6 h. VE-821 (1 μM) was then added at 1 h prior to irradiation and left for 72 h upon which the medium was replaced. Cells were transferred to normoxia at 1 h post-irradiation. B) clonogenic survival of cells after irradiation with 6 Gy and treatment with 1 μM VE-821 in oxic and hypoxic (0.5% O2) conditions, as described above and in FIG. 1 (n=3). *, P<0.05; **, P<0.01; ***, P<0.001 over DMSO-treated control. A) clonogenic survival of cells treated with gemcitabine and 1 μM VE-821. Cells were treated with increasing concentrations of gemcitabine for 24 h followed by 72 h treatment of 1 μM VE-821. Colony forming ability was assessed after 10 to 21 days. B) clonogenic survival of cells treated with gemcitabine in hypoxia. Plated cells were transferred to hypoxia (0.5% O2) and acclimatised for 6 h. Cells were then treated with increasing concentrations of gemcitabine for 24 h followed by 72 h treatment of 1 μM VE-821. Hypoxic cells were transferred to normoxia 1 h after VE-821 addition. C) clonogenic survival after treatment with 20 nM gemcitabine and VE-821 in oxic and hypoxic (0.5% O2) conditions, as described above. D) clonogenic survival of cells treated with gemcitabine and irradiation. PSN-1 and MiaPaCa-2 cells were treated with 5 nM or 10 nM gemcitabine, respectively, for 24 h, medium was then replaced and 1 μM VE-821 was added from 1 h prior to 72 h post 4 Gy irradiation. Colony forming ability was assessed after 10 to 21 days (n=3). *, P<0.05; **, P<0.01; ***, P<0.001 over DMSO-treated control. Logarithmically growing cells were plated in triplicate in 6-well tissue culture dishes under oxic (21% O2) or hypoxic conditions (0.5% O2) using an InVivo2 300 chamber (Ruskinn Technology, UK). […] Cells were incubated for 10-21 days until colonies were stained with 0.5% crystal violet and counted in a CellCount automated colony counter (Oxford Optronix). Clonogenic survival was calculated and data were fitted in the GraphPad Prism 4.0 (GraphPad Software, CA).

Consider `CNCc1ccc(-c2cc(-c3nc(-c4ccc(S(=O)(=O)C(C)C)cc4)cnc3N)on2)cc1` [VE-822], for which the “antitumor effects of gemcitabine (tumor volume)” value in assay [1] is “enhances the antitumor effects of gemcitabine”.
In the case of `CS(=O)(=O)c1ccc(-c2cnc(N)c(C(=O)Nc3ccccc3)n2)cc1` [VE-821], in assay [2] (1 μM VE-821, hypoxia 0.5% O2, FIG. 2 panels A-B), the “radiosensitisation under hypoxic conditions (clonogenic survival)” value was “radiosensitises tumour PSN-1, MiaPaCa-2 and PancM cells under hypoxic conditions”. For the same compound, the “sensitisation to gemcitabine (clonogenic survival)” value in assay [2] (1 μM VE-821 for 72 h after 24 h gemcitabine, oxic and hypoxic (0.5% O2), FIG. 3 panels B-C) is “sensitises normoxic and hypoxic cancer cells to gemcitabine”. Moreover, in assay [2] (PSN-1 and MiaPaCa-2, 5 or 10 nM gemcitabine, 1 μM VE-821, 4 Gy, FIG. 3 panel D), the “potentiation of chemoradiation (clonogenic survival)” value is listed as “potentiates the effect of chemoradiation”. In addition, in assay [2] (PSN-1 cells, 1 μM VE-821, 4 Gy, effect increased as drug incubation time after irradiation was extended, FIG. 1 panel C), the “surviving fraction after irradiation” value is “a decrease in surviving fraction was observed”.
